Results from US8791132B2, “Compounds and methods for treatment of hypertension” (Medivation Technologies, Inc., priority 2011, dated 2014).
“And” between values parts separate entries of the source, which are not always exact repeats. Equal entries are not always repeated. Where two headings read alike, the source gives them in different places. Each block holds one compound with its values, some of them ahead of it.

Columns and labels:
[1] = target: T1, rat adrenergic α1B receptor (Rattus norvegicus, UniProt P15823); experiment: Radioligand binding, adrenergic α1B ([3H]Prazosin); settings: for Percentage inhibition of ligand binding, Adrenergic α1B (0.1 μM) / Percentage inhibition of ligand binding, Adrenergic α1B: 0.1 µM
T1 construct: rat adrenergic α1B receptor obtained from Wistar Rat liver; from tissue; host or cells: Wistar rat liver
T1 sequence (P15823 1-515): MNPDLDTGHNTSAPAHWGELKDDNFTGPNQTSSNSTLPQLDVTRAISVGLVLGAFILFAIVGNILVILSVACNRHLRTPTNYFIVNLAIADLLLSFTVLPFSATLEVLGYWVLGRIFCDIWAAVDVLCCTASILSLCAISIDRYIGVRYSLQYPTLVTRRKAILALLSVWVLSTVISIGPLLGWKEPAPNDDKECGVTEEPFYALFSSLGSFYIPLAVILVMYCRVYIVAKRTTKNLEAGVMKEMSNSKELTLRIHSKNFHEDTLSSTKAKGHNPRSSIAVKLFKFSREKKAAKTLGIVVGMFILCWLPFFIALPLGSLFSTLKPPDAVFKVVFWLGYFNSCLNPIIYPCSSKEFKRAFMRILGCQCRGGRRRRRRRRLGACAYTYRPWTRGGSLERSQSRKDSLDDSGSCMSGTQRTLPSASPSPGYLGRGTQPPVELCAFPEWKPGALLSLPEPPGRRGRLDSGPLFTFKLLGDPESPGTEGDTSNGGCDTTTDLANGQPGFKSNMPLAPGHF
Method in brief: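 Incubation ran 60 min at 25 °C in Tris-HCl buffer (50 mM, pH 7.4, 0.5 mM EDTA) with Wistar rat liver α1B receptor. 10 μM phentolamine set non-specific binding.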

[2] = target: T2, human recombinant adrenergic α2B receptor (Homo sapiens, UniProt P18089); experiment: Radioligand binding, adrenergic α2B ([3H]Rauwolscine); settings: for Ki: read-out: Ki α2B; for Percentage inhibition of ligand binding, Adrenergic α2B (0.03 μM) / Percentage inhibition of ligand binding, Adrenergic α2B: 0.03 µM
T2 construct: expressed in transfected cells; host or cells: CHO-K1
T2 sequence (P18089 1-450): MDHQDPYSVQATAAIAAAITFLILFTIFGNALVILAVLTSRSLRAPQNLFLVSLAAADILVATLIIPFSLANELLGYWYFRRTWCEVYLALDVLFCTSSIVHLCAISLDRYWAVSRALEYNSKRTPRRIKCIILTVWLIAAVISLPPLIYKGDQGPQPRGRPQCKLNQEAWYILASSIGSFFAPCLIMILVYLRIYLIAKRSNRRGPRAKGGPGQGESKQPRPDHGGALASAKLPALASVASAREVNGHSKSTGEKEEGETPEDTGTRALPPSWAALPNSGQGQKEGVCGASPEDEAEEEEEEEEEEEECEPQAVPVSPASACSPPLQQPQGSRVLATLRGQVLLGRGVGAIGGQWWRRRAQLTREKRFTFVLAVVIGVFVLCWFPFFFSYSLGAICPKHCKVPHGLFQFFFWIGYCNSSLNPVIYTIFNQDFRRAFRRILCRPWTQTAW
Method in brief: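 Receptor expressed in CHO-K1 cells, assayed in 50 mM Tris-HCl pH 7.4 with 12.5 mM MgCl2, 1 mM EDTA and 0.2% BSA. Compounds were incubated with 2.5 nM [3H]Rauwolscine for 60 min at 25° C; 10 μM Prazosin defined non-specific binding. Filter counting gave percent inhibition of specific binding.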

[3] = target: T3, human recombinant adrenergic α2A receptor (Homo sapiens, UniProt P08913); experiment: Radioligand binding, adrenergic α2A ([3H]MK-912); settings: for Percentage inhibition of ligand binding, Adrenergic α2A (0.1 μM) / Percentage inhibition of ligand binding, Adrenergic α2A: 0.1 µM
T3 construct: expressed in transfected cells; host or cells: insect Sf9 cells
T3 sequence (P08913 1-465): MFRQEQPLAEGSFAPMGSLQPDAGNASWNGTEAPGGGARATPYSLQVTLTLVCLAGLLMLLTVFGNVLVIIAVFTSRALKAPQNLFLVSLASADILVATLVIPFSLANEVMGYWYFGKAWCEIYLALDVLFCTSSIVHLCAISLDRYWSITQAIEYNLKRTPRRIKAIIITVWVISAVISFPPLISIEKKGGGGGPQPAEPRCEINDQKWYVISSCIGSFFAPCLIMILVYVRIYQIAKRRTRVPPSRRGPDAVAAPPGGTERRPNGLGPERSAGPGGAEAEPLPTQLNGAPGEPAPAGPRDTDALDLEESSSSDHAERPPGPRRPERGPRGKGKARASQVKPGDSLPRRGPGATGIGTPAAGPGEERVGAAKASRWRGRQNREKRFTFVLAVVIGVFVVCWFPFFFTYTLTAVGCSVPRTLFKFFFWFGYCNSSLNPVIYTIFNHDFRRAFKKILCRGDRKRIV
Method in brief: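 Sf9-expressed receptor was incubated with compound for 60 min at 25 °C in modified Tris-HCl buffer, pH 7.4. Nonspecific binding was taken as that remaining with 10 μM WB-4101.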

[4] = compound at 0.1 μM, [3H]Prazosin, repeat datapoints each shown
[5] = compound at 0.03 μM, [3H]Rauwolscine, repeat datapoints each shown
[6] = compound at 0.1 μM, [3H]MK-912, repeat datapoints each shown
[7] = compound at 0.1 μM, [3H]Prazosin, repeat assays, each datapoint shown, read-out: Percentage inhibition of ligand binding, Adrenergic α1B
[8] = compound at 0.03 μM, [3H]Rauwolscine, repeat assays, each datapoint shown, read-out: Percentage inhibition of ligand binding, Adrenergic α2B
[9] = compound at 0.1 μM, [3H]MK-912, repeat assays, each datapoint shown, read-out: Percentage inhibition of ligand binding, Adrenergic α2A
[10] = read-out: Percentage inhibition of ligand binding, Adrenergic α1B (0.1 μM), compound at 0.1 μM, [3H]Prazosin, repeat datapoints each shown
[11] = read-out: Percentage inhibition of ligand binding, Adrenergic α2B (0.03 μM), compound at 0.03 μM, [3H]Rauwolscine, repeat datapoints each shown
[12] = read-out: Percentage inhibition of ligand binding, Adrenergic α2A (0.1 μM), compound at 0.1 μM, [3H]MK-912, repeat datapoints each shown
[13] = compound at 0.1 μM, [3H]Prazosin, repeat assays, each datapoint shown
[14] = compound at 0.1 μM, [3H]MK-912, repeat assays, each datapoint shown
[15] = compound at 0.03 μM, [3H]Rauwolscine, repeat assays, each datapoint shown

Percentage inhibition of ligand binding, Adrenergic α1B (0.1 μM) [1, 4]: 7% | Percentage inhibition of ligand binding, Adrenergic α2B (0.03 μM) [2, 5]: 91% and 102% | Ki [2]: 1.49 nM | Percentage inhibition of ligand binding, Adrenergic α2A (0.1 μM) [3, 6]: 19%
Structure (SMILES): Cc1ccc2c(c1)c1c(n2CC(OC(=O)c2ccncc2)c2ccncc2)CCN(C)C1 (centres unmarked) [compound 147, isonicotinic acid 2-(2,8-dimethyl-1,2,3,4-tetrahydro-pyrido[4,3-b]indol-5-yl)-1-pyridin-4-yl-ethylester]

inhibition at 0.1 µM [1, 7]: 2% | inhibition at 0.03 µM [2, 8]: 4% | inhibition at 0.1 µM [3, 9]: 1%
Structure (SMILES): Cc1ccc2c(c1)c1c(n2CC(=O)c2cc[n+]([O-])cc2)CCN(C)C1 [compound 68]

Percentage inhibition of ligand binding, Adrenergic α1B ([1]; 0.1 μM compound): 30% | Percentage inhibition of ligand binding, Adrenergic α2B ([2]; 0.03 μM compound): 88% | inhibition at 0.1 µM ([3]; 0.1 μM compound, read-out: Percentage inhibition of ligand binding, Adrenergic α2A): 34%
Structure (SMILES): Cc1ccc2c(c1)c1c(n2CC(c2ccc(F)cc2)N(C)C)CCN(C)C1 (single isomer, unassigned) [II-14a, 2-(2,8-dimethyl-3,4-dihydro-1H-pyrido[4,3-b]indol-5(2H)-yl)-1-(4-fluorophenyl)-N,N-dimethylethanamine]

inhibition at 0.1 µM [1, 10]: 3% | inhibition at 0.03 µM [2, 11]: 11% | inhibition at 0.1 µM [3, 12]: 10%
Structure (SMILES): Cc1ccc2c(c1)c1c(n2CC(C(=O)O)c2ccncc2)CCN(C)C1 (centres unmarked) [II-262, 3-(2,8-dimethyl-3,4-dihydro-1H-pyrido[4,3-b]indol-5(2H)-yl)-2-(pyridin-4-yl)propanoic acid]

Structure (SMILES): Cc1ccc2c(c1)c1c(n2CC(OC(=O)C(C)(C)C)c2ccncc2)CCN(C)C1 (single isomer, unassigned) [130a]
Percentage inhibition of ligand binding, Adrenergic α1B (0.03 μM) ([1]; compound at 0.03 μM, [3H]Prazosin, repeat datapoints each shown, 0.03 µM): 32% | Percentage inhibition of ligand binding, Adrenergic α1B (0.1 μM) [1, 4]: 66% and 68% | Percentage inhibition of ligand binding, Adrenergic α2B (0.03 μM) [2, 5]: 104% | Ki [2]: 1.66 nM | inhibition at 0.03 µM [2, 11]: 100% | inhibition at 0.1 µM ([2]; read-out: Percentage inhibition of ligand binding, Adrenergic α2B (0.1 μM), compound at 0.1 μM, [3H]Rauwolscine, repeat datapoints each shown): 107% | Ki [3]: 6.91 nM

Percentage inhibition of ligand binding, Adrenergic α1B (0.1 μM) [1, 4]: 24% | Percentage inhibition of ligand binding, Adrenergic α2B (0.03 μM) [2, 5]: 47% | Percentage inhibition of ligand binding, Adrenergic α2A (0.1 μM) [3, 6]: 10%
Structure (SMILES): Cc1ccc2c(c1)c1c(n2CC(O)c2ccc(C)nc2)CCN2CCCC12 (single isomer, unassigned) [198a, 2-(9-methyl-1,2,3,4,5,10c-hexahydro-3a,6-diaza-cyclopenta[c]fluoren-6-yl)-1-(6-methyl-pyridin-3-yl)-ethanol]

Percentage inhibition of ligand binding, Adrenergic α1B [1, 13]: 28% | inhibition at 0.03 µM [2, 8]: 27% | Percentage inhibition of ligand binding, Adrenergic α2A [3, 14]: 14%
Structure (SMILES): Cc1cnc2c(c1)c1c(n2CCc2ccc(C)nc2)CCN2CCCC12 (single isomer, unassigned) [74b, 10-methyl-7-(2-(6-methylpyridin-3-yl)ethyl)-2,3,5,6,7,11c-hexahydro-1H-pyrido[3′,2′:4,5]pyrrolo[2,3-g]indolizine]

inhibition at 0.1 µM [1, 7]: 16% | Percentage inhibition of ligand binding, Adrenergic α2B [2, 15]: 58% | inhibition at 0.1 µM [3, 9]: 12%
Structure (SMILES): CN1CCc2c(c3cccc(Br)c3n2CC(O)c2ccncc2)C1 (single isomer, unassigned) [48a]

Percentage inhibition of ligand binding, Adrenergic α1B (0.1 μM) [1, 4]: 59% | Percentage inhibition of ligand binding, Adrenergic α2B (0.03 μM) [2, 5]: 76% | Percentage inhibition of ligand binding, Adrenergic α2A (0.1 μM) [3, 6]: 11%
Structure (SMILES): Cc1ccc2c(c1)c1c(n2CC(O)c2ccc(C#N)nc2)CCN(C)C1 (single isomer, unassigned) [140a, 5-[2-(2,8-dimethyl-1,2,3,4-tetrahydro-pyrido[4,3-b]indol-5-yl)-1-hydroxy-ethyl]-pyridine-2-carbonitrile]

inhibition at 0.1 µM [1, 10]: -2% | inhibition at 0.03 µM [2, 11]: 47% | inhibition at 0.1 µM [3, 12]: -10%
Structure (SMILES): Cc1ccc2c(n1)c1c(n2CC(O)c2ccncc2)CCN2CCCC12 (centres unmarked) [II-122]

inhibition at 0.1 µM [1, 10]: 6% | inhibition at 0.03 µM [2, 11]: 8% | inhibition at 0.1 µM [3, 12]: 6%
Structure (SMILES): Cc1ccc2c(c1)c1c(n2CC(C)(O)c2cnccc2C(=O)O)CCN(C)C1 (centres unmarked) [compound 179]

Percentage inhibition of ligand binding, Adrenergic α1B (0.1 μM) [1, 4]: −2% | Percentage inhibition of ligand binding, Adrenergic α2B (0.03 μM) [2, 5]: 11% | Percentage inhibition of ligand binding, Adrenergic α2A (0.1 μM) [3, 6]: −6%
Structure (SMILES): Cc1cnc2c(c1)c1c(n2CC(C)(O)c2ccc(C(F)(F)F)nc2)CCN(C)C1 (single isomer, unassigned) [II-108b]

Percentage inhibition of ligand binding, Adrenergic α1B [1, 13]: −3% | Percentage inhibition of ligand binding, Adrenergic α2B [2, 15]: 56% | Percentage inhibition of ligand binding, Adrenergic α2A [3, 14]: −1%
Structure (SMILES): COc1cccc2c3c(n(CC(O)c4ccncc4)c12)CCN(C)C3 (centres unmarked) [compound 44, 2-(6-methoxy-2-methyl-3,4-dihydro-1H-pyrido[4,3-b]indol-5(2H)-yl)-1-(pyridin-4-yl)ethanol]

inhibition at 0.1 µM [1, 7]: 4% | inhibition at 0.03 µM [2, 8]: 10% | inhibition at 0.1 µM [3, 9]: 11%
Structure (SMILES): Cc1ccc2c(c1)c1c(n2CC(O)c2cc[n+]([O-])cc2)CCN(C)C1 (centres unmarked) [69a]

Percentage inhibition of ligand binding, Adrenergic α1B (0.1 μM) [1, 4]: 59% | Percentage inhibition of ligand binding, Adrenergic α2B (0.03 μM) [2, 5]: 96% | Percentage inhibition of ligand binding, Adrenergic α2A (0.1 μM) [3, 6]: 27%
Structure (SMILES): Cc1cnc2c(c1)c1c(n2CC(C)(O)c2ccc(F)cc2)CCN2CCCC12 (single isomer, unassigned) [II-149b, 2-(4-fluoro-phenyl)-1-(9-methyl-1,2,3,4,5,10c-hexahydro-3a,6,7-triazacyclopenta[c]fluoren-6-yl)-propan-2-ol]

inhibition at 0.1 µM [1, 10]: 11% | Percentage inhibition of ligand binding, Adrenergic α2B (0.03 μM) [2, 5]: 27% | Percentage inhibition of ligand binding, Adrenergic α2A (0.1 μM) [3, 6]: 1%
Structure (SMILES): Cc1ccc2c(c1)c1c(n2CC(C)(O)c2cccnc2)C(O)CN(C)C1 (single isomer, unassigned) [II-151a]

Percentage inhibition of ligand binding, Adrenergic α1B [1, 13]: 33% | Percentage inhibition of ligand binding, Adrenergic α2B [2, 15]: 51% | Percentage inhibition of ligand binding, Adrenergic α2A [3, 14]: 9%
Structure (SMILES): Cc1ccc2c(c1)c1c(n2CC(O)c2cccnc2)CN(C)CC1 (single isomer, unassigned) [43a, 2-(2,6-dimethyl-1,2,3,4-tetrahydro-β-carbolin-9-yl)-1-pyridin-3-yl-ethanol]

inhibition at 0.1 µM [1, 10]: 34% | inhibition at 0.03 µM [2, 11]: 72% | inhibition at 0.1 µM [3, 12]: 7%
Structure (SMILES): Cc1ccc2c(c1)c1c(n2CC(O)c2ncc[nH]2)CCN2CCCC12 (centres unmarked) [II-139, 1-(1H-imidazol-2-yl)-2-(10-methyl-2,3,5,6-tetrahydro-1H-indolizino[7,8-b]indol-7(11cH)-yl)ethanol]
